Strand notation (5' to 3'): a small letter for the sugar, then the base; units joined by * are phosphorothioate-linked, units joined directly phosphodiester-linked; [ ] holds rarer units or linkages, { } end groups; capitals alone tell only the bases. e = 2'-O-(2-methoxyethyl) (MOE); [5mC] = 5-methylcytosine; d = 2'-deoxy (DNA)
Columns and labels:
human CETP mRNA [1] = assay: Antisense inhibition of human CETP mRNA in primary hepatocytes from huCETP transgenic mice (Example 4); assay type: cell-based, mouse; settings: cytofectin, ~24 hours
Procedure: Transgenic mice expressing human CETP, controlled by its natural flanking region, increase expression of this gene in response to hypercholesterolemia (Jiang, X. C. et al., J. Clin. Invest. 1992. 90: 1290-1295). These mice were utilized for the following studies. Antisense oligonucleotides targeted to a CETP nucleic acid and described in Example 1 were tested for their effect on CETP mRNA transcript in vitro. Cultured primary hepatocytes from huCETP transgenic mice, at a density of 17,500 cells per well in a 96-well plate, were transfected using cytofectin reagent with 100 nM or 200 nM antisense oligonucleotide. After approximately 24 hours, RNA was isolated from the cells and CETP mRNA levels were measured by quantitative real-time PCR. CETP mRNA transcript levels were adjusted according to total RNA content, as measured by the house-keeping gene, GAPDH mRNA levels. Results are presented in Table 6 as percent inhibition of CETP, relative to untreated control cells.

human CETP mRNA [2] = assay: Antisense inhibition of human CETP mRNA in SW872 liposarcoma cells (Example 1); assay type: cell-based; settings: 150 nM antisense oligonucleotide, lipofectin, ~24 hours, relative to untreated control cells
Procedure: Antisense oligonucleotides targeted to a CETP nucleic acid were tested for their effect on CETP mRNA transcript in vitro. Cultured SW872 liposarcoma cells at a density of 50,000 cells per well in a 24-well plate were transfected using lipofectin reagent with 150 nM antisense oligonucleotide. After approximately 24 hours, RNA was isolated from the cells and CETP mRNA levels were measured by quantitative real-time PCR. A human primer probe set (forward sequence […], designated herein as SEQ ID NO: 38; reverse sequence GGCTCACGCCTTTGCTGTT, designated herein as SEQ ID NO: 39; probe sequence […], designated herein as SEQ ID NO: 40) was used to quantitate CETP mRNA. CETP mRNA transcript levels were adjusted according to total RNA content, as measured by the house-keeping gene, GAPDH mRNA levels. GAPDH was measured using a primer probe set with the sequence as set forth in SEQ ID NOs: 10, 11, 13. Results are presented as percent inhibition of CETP, relative to untreated control cells.
The antisense oligonucleotides in Table 3 are 5-10-5 gapmers, where the gap segment comprises ten 2′-deoxynucleosides and each wing segment comprises five 2′-MOE nucleosides. Each nucleotide in the 5′ wing segment and each nucleotide in the 3′ wing segment has a 2′-MOE modification. The internucleoside linkages throughout each gapmer are phosphorothioate (P═S) linkages. All cytosine residues throughout each gapmer are 5-methylcytosines. ‘Target start site’ indicates the 5′-most nucleotide to which the antisense oligonucleotide is targeted. ‘Target stop site’ indicates the 3′-most nucleotide to which the antisense oligonucleotide is targeted. All the antisense oligonucleotides listed in Table 3 target human CETP mRNA, designated herein as SEQ ID NO: 1 (GENBANK Accession No. M30185.1).

Substance	Percent inhibition of human CETP mRNA (human CETP mRNA [1]; 100 nM)	Percent inhibition of human CETP mRNA (human CETP mRNA [1]; 200 nM)	% inhibition (human CETP mRNA [2])
ISIS 349469: 5-10-5 MOE gapmer TCTCGAAGTCAATGGACTGA (eT*e[5mC]*eT*e[5mC]*eG*dA*dA*dG*dT*d[5mC]*dA*dA*dT*dG*dG*eA*e[5mC]*eT*eG*eA)	40%	66%	70%
ISIS 349476: 5-10-5 MOE gapmer CCTTCAGGACCAGCTTCAGG (e[5mC]*e[5mC]*eT*eT*e[5mC]*dA*dG*dG*dA*d[5mC]*d[5mC]*dA*dG*d[5mC]*dT*eT*e[5mC]*eA*eG*eG)	49%	60%	59%
ISIS 349471: 5-10-5 MOE gapmer GTCAGCTGTGTGTTGATCTG (eG*eT*e[5mC]*eA*eG*d[5mC]*dT*dG*dT*dG*dT*dG*dT*dT*dG*eA*eT*e[5mC]*eT*eG)	70%	66%	32%
ISIS 349496: 5-10-5 MOE gapmer ACAGAATGTTGCTGGTCTGG (eA*e[5mC]*eA*eG*eA*dA*dT*dG*dT*dT*dG*d[5mC]*dT*dG*dG*eT*e[5mC]*eT*eG*eG)	57%	87%	69%
ISIS 349456: 5-10-5 MOE gapmer TCGTGGTTCAACACCAGGAG (eT*e[5mC]*eG*eT*eG*dG*dT*dT*d[5mC]*dA*dA*d[5mC]*dA*d[5mC]*d[5mC]*eA*eG*eG*eA*eG)	74%	51%	68%
ISIS 349502: 5-10-5 MOE gapmer GAAGCTCTGGATGGACTCGG (eG*eA*eA*eG*e[5mC]*dT*d[5mC]*dT*dG*dG*dA*dT*dG*dG*dA*e[5mC]*eT*e[5mC]*eG*eG)	49%	61%	43%
ISIS 349499: 5-10-5 MOE gapmer CCAAGAGGCTTAAGAAGAGC (e[5mC]*e[5mC]*eA*eA*eG*dA*dG*dG*d[5mC]*dT*dT*dA*dA*dG*dA*eA*eG*eA*eG*e[5mC])	80%	80%	55%
ISIS 349446: 5-10-5 MOE gapmer GGAACATGAGGCTCTTCCGG (eG*eG*eA*eA*e[5mC]*dA*dT*dG*dA*dG*dG*d[5mC]*dT*d[5mC]*dT*eT*e[5mC]*e[5mC]*eG*eG)	34%	36%	0%
ISIS 349470: 5-10-5 MOE gapmer GAGGTCAATGGCAGAGTCGA (antisense eG*eA*eG*eG*eT*d[5mC]*dA*dA*dT*dG*dG*d[5mC]*dA*dG*dA*eG*eT*e[5mC]*eG*eA)	64%	49%	59%
ISIS 349509: 5-10-5 MOE gapmer CATCTGCAGCAGCAGGAAGC (e[5mC]*eA*eT*e[5mC]*eT*dG*d[5mC]*dA*dG*d[5mC]*dA*dG*d[5mC]*dA*dG*eG*eA*eA*eG*e[5mC])	22%	83%	70%
ISIS 349460: 5-10-5 MOE gapmer GCATCATGGCCTTCTCGCCC (eG*e[5mC]*eA*eT*e[5mC]*dA*dT*dG*dG*d[5mC]*d[5mC]*dT*dT*d[5mC]*dT*e[5mC]*eG*e[5mC]*e[5mC]*e[5mC])	67%	76%	80%
ISIS 349457: 5-10-5 MOE gapmer TCTGGATCACCTTGGCAGTC (eT*e[5mC]*eT*eG*eG*dA*dT*d[5mC]*dA*d[5mC]*d[5mC]*dT*dT*dG*dG*e[5mC]*eA*eG*eT*e[5mC])	42%	30%	52%
ISIS 349445: 5-10-5 MOE gapmer CAGCAGGGTCTTCCTGGCCC (e[5mC]*eA*eG*e[5mC]*eA*dG*dG*dG*dT*d[5mC]*dT*dT*d[5mC]*d[5mC]*dT*eG*eG*e[5mC]*e[5mC]*e[5mC])	74%	71%	6%
ISIS 349473: 5-10-5 MOE gapmer AGCAGCTTATGGAAAGACAG (eA*eG*e[5mC]*eA*eG*d[5mC]*dT*dT*dA*dT*dG*dG*dA*dA*dA*eG*eA*e[5mC]*eA*eG)	55%	61%	72%
ISIS 349475: 5-10-5 MOE gapmer GCTTGATCCACCCAGGCTCT (eG*e[5mC]*eT*eT*eG*dA*dT*d[5mC]*d[5mC]*dA*d[5mC]*d[5mC]*d[5mC]*dA*dG*eG*e[5mC]*eT*e[5mC]*eT)	0%	0%	5%
ISIS 349492: 5-10-5 MOE gapmer GGCATCTTGAGGCAGTGGAC (antisense eG*eG*e[5mC]*eA*eT*d[5mC]*dT*dT*dG*dA*dG*dG*d[5mC]*dA*dG*eT*eG*eG*eA*e[5mC])	59%	58%	39%
ISIS 349484: 5-10-5 MOE gapmer ACCAGAAGTACAGCATGCGG (eA*e[5mC]*e[5mC]*eA*eG*dA*dA*dG*dT*dA*d[5mC]*dA*dG*d[5mC]*dA*eT*eG*e[5mC]*eG*eG)	34%	52%	38%
ISIS 349474: 5-10-5 MOE gapmer CGCTCCCCTTGGAGATGCAG (e[5mC]*eG*e[5mC]*eT*e[5mC]*d[5mC]*d[5mC]*d[5mC]*dT*dT*dG*dG*dA*dG*dA*eT*eG*e[5mC]*eA*eG)	64%	48%	76%
ISIS 349493: 5-10-5 MOE gapmer TGTTTTGGCAGGAGATCTTG (eT*eG*eT*eT*eT*dT*dG*dG*d[5mC]*dA*dG*dG*dA*dG*dA*eT*e[5mC]*eT*eT*eG)	51%	62%	67%
ISIS 349491: 5-10-5 MOE gapmer AGCCGCCGACAACCTCTTGG (eA*eG*e[5mC]*e[5mC]*eG*d[5mC]*d[5mC]*dG*dA*d[5mC]*dA*dA*d[5mC]*d[5mC]*dT*e[5mC]*eT*eT*eG*eG)	60%	74%	45%
ISIS 349507: 5-10-5 MOE gapmer TGATGATGTCGAAGAGGCTC (eT*eG*eA*eT*eG*dA*dT*dG*dT*d[5mC]*dG*dA*dA*dG*dA*eG*eG*e[5mC]*eT*e[5mC])	71%	73%	19%
ISIS 349494: 5-10-5 MOE gapmer AGAATTGACCACGACTCCCT (eA*eG*eA*eA*eT*dT*dG*dA*d[5mC]*d[5mC]*dA*d[5mC]*dG*dA*d[5mC]*eT*e[5mC]*e[5mC]*e[5mC]*eT)	85%	57%	41%
ISIS 349498: 5-10-5 MOE gapmer CTGGACGGTAGTCACGATAT (e[5mC]*eT*eG*eG*eA*d[5mC]*dG*dG*dT*dA*dG*dT*d[5mC]*dA*d[5mC]*eG*eA*eT*eA*eT)	76%	84%	80%
ISIS 349486: 5-10-5 MOE gapmer GAAAGCTACCTTGGCCAGCG (eG*eA*eA*eA*eG*d[5mC]*dT*dA*d[5mC]*d[5mC]*dT*dT*dG*dG*d[5mC]*e[5mC]*eA*eG*e[5mC]*eG)	72%	53%	55%
ISIS 349508: 5-10-5 MOE gapmer TCTCGAGTGATAATCTCAGG (eT*e[5mC]*eT*e[5mC]*eG*dA*dG*dT*dG*dA*dT*dA*dA*dT*d[5mC]*eT*e[5mC]*eA*eG*eG)	76%	86%	24%
ISIS 349458: 5-10-5 MOE gapmer GGTAGCTGGCTCGCTGGAAG (eG*eG*eT*eA*eG*d[5mC]*dT*dG*dG*d[5mC]*dT*d[5mC]*dG*d[5mC]*dT*eG*eG*eA*eA*eG)	65%	32%	18%
